The record followed here is patent US9120749B2, “Quinoline derivatives and MELK inhibitors containing the same” (ONCOTHERAPY SCIENCE, INC., priority 2010, dated 2015).

SMILES strings stand for the structures. Counter-ions that a name gives are not always drawn. Like-named read-outs stand apart in the source and are kept apart here.

The target in one assay is MELK (Homo sapiens, UniProt Q14680). Description: Kinase assay: MELK activity, phosphorylation of FITC-labeled histone H3 peptide measured by IMAP fluorescence polarization. The class given is biochemical. As to conditions: read-out: IC50 (μM) (kinase assay). In outline:
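Polarization of fluorescence served as the signal for MELK turnover of FITC-conjugated histone H3 peptide. Binding solution quenched each reaction, and plates stood 0.5 hour at room temperature before reading.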

A further assay deals with T47D cells. Description: Cell-based assay: anti-proliferative activity, Cell Counting Kit-8, 72 hours (T47D). The conditions noted are these: Homo sapiens, T47D, 72 h. The method in brief:
(§1)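 Target-specific cytotoxicity: seeded cells treated with MELK inhibitor candidates for 72 h, proliferation quantified via CCK-8, IC50 fitted.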

The next assay relates to A549 cells. Description: Cell-based assay: anti-proliferative activity, Cell Counting Kit-8, 72 hours (A549). The conditions noted are these: Homo sapiens, A549, 72 h, 72 hours. The method in brief:
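A549 cells seeded in 96-well plates and exposed to candidate inhibitors for 72 hours. Growth measured with Cell Counting Kit-8; IC50 values calculated from the dose response.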

The test system of the next assay is HT-1197 cells. Nature of the assay: Cell-based assay: anti-proliferative activity, Cell Counting Kit-8, 72 hours (HT-1197, negative control without MELK expression). As to conditions: Homo sapiens, HT1197, 72 h, HT1197 cells (negative control), 72 hours. In outline: as §1
The test system of another assay is DU4475 cells. Description: Cell-based assay: anti-proliferative activity, Cell Counting Kit-8, 72 hours (DU4475). The conditions noted are these: Homo sapiens, DU-4475, 72 h.

MELK, sequence (Q14680 whole entry, looked up): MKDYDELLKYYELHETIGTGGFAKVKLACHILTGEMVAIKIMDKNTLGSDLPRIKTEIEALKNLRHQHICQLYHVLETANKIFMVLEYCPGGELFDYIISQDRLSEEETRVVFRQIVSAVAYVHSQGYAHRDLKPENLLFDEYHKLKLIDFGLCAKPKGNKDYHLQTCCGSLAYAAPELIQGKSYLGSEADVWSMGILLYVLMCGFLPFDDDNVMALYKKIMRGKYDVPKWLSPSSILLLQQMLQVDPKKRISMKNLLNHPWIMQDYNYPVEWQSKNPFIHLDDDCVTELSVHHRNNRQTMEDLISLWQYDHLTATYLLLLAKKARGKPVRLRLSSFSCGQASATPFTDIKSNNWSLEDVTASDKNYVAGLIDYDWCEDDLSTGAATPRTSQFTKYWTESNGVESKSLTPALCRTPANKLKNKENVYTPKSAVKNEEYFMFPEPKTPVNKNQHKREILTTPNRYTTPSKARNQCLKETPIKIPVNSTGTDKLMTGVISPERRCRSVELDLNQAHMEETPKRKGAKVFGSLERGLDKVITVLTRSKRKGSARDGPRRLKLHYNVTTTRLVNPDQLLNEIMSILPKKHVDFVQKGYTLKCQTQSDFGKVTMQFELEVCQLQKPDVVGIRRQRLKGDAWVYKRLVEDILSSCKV

Consider `COc1cc(-c2ccc3ncc(C(=O)C4CC4)c(Nc4ccc(N)nc4)c3c2)cc(Cl)c1O` [Example 589, (4-(6-aminopyridin-3-ylamino)-6-(3-chloro-4-hydroxy-5-methoxyphenyl)quinolin-3-yl)(cyclopropyl)methanone], for which the IC50 stood at 0.011 µM at MELK; 0.61 µM with T47D cells; 0.18 µM with A549 cells; 1.4 µM with HT-1197 cells; 0.21 µM with DU4475 cells.
`Nc1ccc(Nc2c(C(=O)C3CC3)cnc3ccc(-c4cc(Cl)c(O)c(Cl)c4)cc23)cn1` [Example 590, (4-(6-aminopyridin-3-ylamino)-6-(3,5-dichloro-4-hydroxyphenyl)quinolin-3-yl)(cyclopropyl)methanone]: the 50% inhibitory concentration (IC50) on MELK is 0.014 µM; in the assay on T47D cells, 0.48 µM; in the assay on A549 cells, 0.48 µM; in the assay with HT-1197 cells, 2.2 µM; in the assay with DU4475 cells, 0.19 µM.
For `Nc1ccc(Nc2c(C(=O)C3CC3)cnc3ccc(-c4cc(F)c(O)c(Cl)c4)cc23)cn1` [Example 591, (4-(6-aminopyridin-3-ylamino)-6-(3-chloro-5-fluoro-4-hydroxyphenyl)quinolin-3-yl)(cyclopropyl)methanone], the 50% inhibitory concentration (IC50) at MELK came to 0.032 µM; in the assay with T47D cells, 0.26 µM; in the assay with A549 cells it was 0.36 µM; in the assay with HT-1197 cells it was 1.4 µM; in the assay on DU4475 cells, 0.12 µM.
In the same order, the values of `CN1CCC(n2cc(Nc3c(C(=O)C4CC4)cnc4ccc(-c5cc(F)c(O)c(Cl)c5)cc34)cn2)CC1` [Example 592, (6-(3-Chloro-5-fluoro-4-hydroxyphenyl)-4-(1-(1-methylpiperidin-4-yl)-1H-pyrazol-4-ylamino)quinolin-3-yl)(cyclopropyl)methanone] are 0.0015 µM, 0.24 µM, 0.13 µM, 2.8 µM and 0.068 µM.
Turning to `CN1CCC(n2cc(Nc3c(C(=O)C4CC4)cnc4ccc(-c5cc(Cl)c(O)c(Cl)c5)cc34)cn2)CC1` [Example 593, Cyclopropyl(6-(3,5-dichloro-4-hydroxyphenyl)-4-(1-(1-methylpiperidin-4-yl)-1H-pyrazol-4-ylamino)quinolin-3-yl)methanone], the half-inhibitory concentration (IC50) on MELK was found to be 0.0013 µM; in the assay on T47D cells, 0.32 µM; in the assay with A549 cells, 0.094 µM; in the assay with HT-1197 cells, 4.3 µM; in the assay with DU4475 cells it was 0.044 µM.
In the case of `CC(=O)c1cnc2ccc(-c3cc(F)c(O)c(Cl)c3)cc2c1Nc1cnc(N2CCNCC2)nc1` [Example 594, 1-(6-(3-chloro-5-fluoro-4-hydroxyphenyl)-4-(2-(piperazin-1-yl)pyrimidin-5-ylamino)quinolin-3-yl)ethanone], the concentration for half-maximal inhibition (IC50) at MELK turned out to be 0.0048 µM; with T47D cells, 0.025 µM; in the assay on A549 cells, 0.063 µM; in the assay with HT-1197 cells, 0.66 µM; with DU4475 cells, 0.048 µM.
`COc1cc(-c2ccc3ncc(C(=O)C4CC4)c(N4CCC(C5CCNCC5)CC4)c3c2)cc(Cl)c1O` [Example 595, (4-(4,4′-bipiperidin-1-yl)-6-(3-chloro-4-hydroxy-5-methoxyphenyl)quinolin-3-yl)(cyclopropyl)methanone]: the IC50 at MELK was 0.0042 µM; with T47D cells, 0.41 µM; in the assay on A549 cells, 0.57 µM; in the assay with HT-1197 cells it was 3.4 µM; in the assay on DU4475 cells, 0.64 µM.
In the case of `O=C(c1cnc2ccc(-c3cc(Cl)c(O)c(Cl)c3)cc2c1N1CCC(C2CCNCC2)CC1)C1CC1` [Example 596, (4-(4,4′-bipiperidin-1-yl)-6-(3,5-dichloro-4-hydroxyphenyl)quinolin-3-yl)(cyclopropyl)methanone], the IC50 at MELK is 0.0016 µM; in the assay on T47D cells, 0.18 µM; in the assay on A549 cells, 1.5 µM; in the assay on HT-1197 cells, 5.1 µM; in the assay on DU4475 cells, 0.14 µM.
With `CCCC(=O)c1cnc2ccc(-c3cc(F)c(O)c(Cl)c3)cc2c1N[C@H]1CC[C@H](CN(C)C)CC1` [Example 597, 1-{6-(3-Chloro-5-fluoro-4-hydroxyphenyl)-4-[trans-4-((dimethylamino)methyl)cyclohexylamino]quinolin-3-yl}butan-1-one], the IC50 on MELK came out at 0.0073 µM; in the assay on T47D cells, 0.11 µM; in the assay on A549 cells, 0.16 µM; with HT-1197 cells, 1.1 µM; in the assay on DU4475 cells, 0.083 µM.
In the same order, the values of `COC1CCN(C[C@H]2CC[C@H](Nc3c(C(=O)C4CC4)cnc4ccc(-c5cc(Cl)c(O)c(Cl)c5)cc34)CC2)C1` (stereo partly drawn) [Example 598, cyclopropyl(6-(3,5-dichloro-4-hydroxyphenyl)-4-((trans-4-((3-methoxypyrrolidin-1-yl)methyl)cyclohexyl)amino)quinolin-3-yl)methanone] are 0.0023 µM, 0.18 µM, 0.13 µM, 1 µM and 0.066 µM.
In the same order, the values of `COc1cc(-c2ccc3ncc(C(=O)C4CC4)c(N[C@H]4CC[C@H](CN5CCC(OC)C5)CC4)c3c2)cc(Cl)c1O` (stereo partly shown) [Example 599] are 0.005 µM, 0.51 µM, 0.54 µM, 2.8 µM and 0.37 µM.
In the same order, the values of `O=C(c1cnc2ccc(-c3cc(Cl)c(O)c(Cl)c3)cc2c1N[C@H]1CC[C@H](CN2CCC(O)C2)CC1)C1CC1` (stereo partly drawn) [Example 600, cyclopropyl(6-(3,5-dichloro-4-hydroxyphenyl)-4-((trans-4-((3-hydroxypyrrolidin-1-yl)methyl)cyclohexyl)amino)quinolin-3-yl)methanone] are 0.00073 µM, 0.078 µM, 0.12 µM, 0.76 µM and 0.029 µM.
For `CC(C)(N)c1ccc(Nc2c(C(=O)C3CC3)cnc3ccc(-c4cc(Cl)c(O)c(Cl)c4)cc23)cc1` [Example 601, {4-[4-(2-Aminopropan-2-yl)phenylamino]-6-(3,5-dichloro-4-hydroxyphenyl)quinolin-3-yl}(cyclopropyl)methanone hydrochloride], the 50% inhibitory concentration (IC50) on MELK (hydrochloride) was 0.0014 µM; in the assay with T47D cells it was 0.09 µM; in the assay on A549 cells, 0.047 µM; in the assay on HT-1197 cells it was 0.42 µM; in the assay with DU4475 cells it was 0.023 µM.
For the compound `COc1cc(-c2ccc3ncc(C(=O)C4CC4)c(Nc4ccc(C(C)(C)N)cc4)c3c2)cc(Cl)c1O` [Example 603, (4-(4-(2-aminopropan-2-yl)phenylamino)-6-(3-chloro-4-hydroxy-5-methoxyphenyl)quinolin-3-yl)(cyclopropyl)methanone], the concentration for half-maximal inhibition (IC50) on MELK came to 0.0036 µM; in the assay with T47D cells, 0.52 µM; in the assay on A549 cells it was 0.64 µM; in the assay with HT-1197 cells, 1.7 µM; in the assay with DU4475 cells it was 0.37 µM.
In the case of `CCCC(=O)c1cnc2ccc(-c3cc(Cl)c(O)c(Cl)c3)cc2c1N[C@H]1CC[C@H](CN(C)C)CC1` [Example 605, 1-{6-(3,5-Dichloro-4-hydroxyphenyl)-4-[trans-4-((dimethylamino)methyl)cylohexylamino]quinolin-3-yl}butan-1-one], the IC50 came out at 0.002 µM at MELK; 0.095 µM in the assay with T47D cells; 0.13 µM in the assay with A549 cells; 1.1 µM in the assay on HT-1197 cells; 0.051 µM with DU4475 cells.
With `COc1cc(-c2ccc3ncc(C(=O)C(C)C)c(N[C@H]4CC[C@H](CN(C)C)CC4)c3c2)cc(Cl)c1O` [Example 606], the IC50 at MELK was 0.0063 µM; with T47D cells it was 0.65 µM; in the assay on A549 cells, 0.65 µM; with HT-1197 cells, 1.1 µM; with DU4475 cells, 0.34 µM.
Regarding `CCCC(=O)c1cnc2ccc(-c3cc(Cl)c(O)c(OC)c3)cc2c1N[C@H]1CC[C@H](CN(C)C)CC1` [Example 607], the IC50 is 0.0051 µM at MELK; 0.24 µM with T47D cells; 0.48 µM with A549 cells; 3.4 µM in the assay with HT-1197 cells; 0.24 µM in the assay on DU4475 cells.
In the case of `CC(C)C(=O)c1cnc2ccc(-c3cc(Cl)c(O)c(Cl)c3)cc2c1N[C@H]1CC[C@H](CN(C)C)CC1` [Example 608, 1-(6-(3,5-dichloro-4-hydroxyphenyl)-4-((1R,4R)-4-((dimethylamino)methyl)cyclohexylamino)quinolin-3-yl)-2-methylpropan-1-one], the half-maximal inhibitory concentration (IC50) on MELK was 0.0022 µM; in the assay on T47D cells, 0.15 µM; with A549 cells, 0.25 µM; in the assay on HT-1197 cells, 0.46 µM; in the assay on DU4475 cells, 0.072 µM.
In the same order, the values of `COc1cc(-c2ccc3ncc(C(=O)C4CC4)c(Nc4ccc(NC5CCCNC5)nc4)c3c2)cc(Cl)c1O` (stereo not shown) [Example 609, (6-(3-chloro-4-hydroxy-5-methoxyphenyl)-4-(6-(piperidin-3-ylamino)pyridin-3-ylamino)quinolin-3-yl)(cyclopropyl)methanone] are 0.0025 µM, 0.22 µM, 0.68 µM, 3.9 µM and 0.34 µM.
In the case of `O=C(c1cnc2ccc(-c3cc(Cl)c(O)c(Cl)c3)cc2c1Nc1ccc(NC2CCCNC2)nc1)C1CC1` (stereo not shown) [Example 610, cyclopropyl(6-(3,5-dichloro-4-hydroxyphenyl)-4-(6-(piperidin-3-ylamino)pyridine-3-ylamino)quinolin-3-yl)methanone], the half-inhibitory concentration (IC50) on MELK amounted to 0.0017 µM; in the assay on T47D cells it was 0.22 µM; in the assay on A549 cells, 0.39 µM; with HT-1197 cells, 10 µM; in the assay on DU4475 cells, 0.073 µM.
